Experimental data as given in ChEMBL document CHEMBL4627262, “VEGFR-2 inhibiting effect and molecular modeling of newly synthesized coumarin derivatives as anti-breast cancer agents” (Bioorg Med Chem, 2020).
Active and inactive are the calls of the source. No cut-off for these calls is given here.

How the values were obtained:
PC-3 = assay: Cytotoxicity against human PC3 cells assessed as inhibition of cell proliferation after 3 days by MTT assay; type: functional, cell-based
MCF7 [1] = assay: Cytotoxicity against human MCF7 cells assessed as inhibition of cell proliferation after 3 days by MTT assay; type: functional, cell-based; conditions: MCF7, 72 h
[2] = target: Vascular endothelial growth factor receptor 2 (Homo sapiens, UniProt P35968); assay: Inhibition of VEGFR2 in human MCF7 cells by horseradish peroxidase-coupled TMB substrate based ELISA; type: cell-based
MCF7 [3] = assay: Induction of apoptosis in human MCF7 cells assessed as up regulation of caspase 9 expression by measuring caspase 9 level by ELISA (reference value: 1.223 ng/ml); type: functional
MCF7 [4] = assay: Induction of apoptosis in human MCF7 cells assessed as early apoptotic cells after 48 hrs by Annexin V-FITC/propidium iodide staining based flow cytometric analysis (reference value: 1.56 %); type: functional
MCF7 [5] = assay: Induction of apoptosis in human MCF7 cells assessed as late apoptotic cells after 48 hrs by Annexin V-FITC/propidium iodide staining based flow cytometric analysis (reference value: 0.3 %); type: functional
MCF7 [6] = assay: Cell cycle arrest in human MCF7 cells assessed as induction of preG1 apoptosis after 48 hrs by propidium iodide/RNase A staining based flow cytometry analysis; type: functional
MCF7 [7] = assay: Induction of apoptosis in human MCF7 cells assessed as necrotic cells at after 48 hrs by Annexin V-FITC/propidium iodide staining based flow cytometric analysis (reference value: 0.41 %); type: functional
MCF7 [8] = assay: Cell cycle arrest in human MCF7 cells assessed as accumulation at G2/M phase after 48 hrs by propidium iodide/RNase A staining based flow cytometry analysis; type: functional

Sequence of Vascular endothelial growth factor receptor 2 (P35968 whole entry): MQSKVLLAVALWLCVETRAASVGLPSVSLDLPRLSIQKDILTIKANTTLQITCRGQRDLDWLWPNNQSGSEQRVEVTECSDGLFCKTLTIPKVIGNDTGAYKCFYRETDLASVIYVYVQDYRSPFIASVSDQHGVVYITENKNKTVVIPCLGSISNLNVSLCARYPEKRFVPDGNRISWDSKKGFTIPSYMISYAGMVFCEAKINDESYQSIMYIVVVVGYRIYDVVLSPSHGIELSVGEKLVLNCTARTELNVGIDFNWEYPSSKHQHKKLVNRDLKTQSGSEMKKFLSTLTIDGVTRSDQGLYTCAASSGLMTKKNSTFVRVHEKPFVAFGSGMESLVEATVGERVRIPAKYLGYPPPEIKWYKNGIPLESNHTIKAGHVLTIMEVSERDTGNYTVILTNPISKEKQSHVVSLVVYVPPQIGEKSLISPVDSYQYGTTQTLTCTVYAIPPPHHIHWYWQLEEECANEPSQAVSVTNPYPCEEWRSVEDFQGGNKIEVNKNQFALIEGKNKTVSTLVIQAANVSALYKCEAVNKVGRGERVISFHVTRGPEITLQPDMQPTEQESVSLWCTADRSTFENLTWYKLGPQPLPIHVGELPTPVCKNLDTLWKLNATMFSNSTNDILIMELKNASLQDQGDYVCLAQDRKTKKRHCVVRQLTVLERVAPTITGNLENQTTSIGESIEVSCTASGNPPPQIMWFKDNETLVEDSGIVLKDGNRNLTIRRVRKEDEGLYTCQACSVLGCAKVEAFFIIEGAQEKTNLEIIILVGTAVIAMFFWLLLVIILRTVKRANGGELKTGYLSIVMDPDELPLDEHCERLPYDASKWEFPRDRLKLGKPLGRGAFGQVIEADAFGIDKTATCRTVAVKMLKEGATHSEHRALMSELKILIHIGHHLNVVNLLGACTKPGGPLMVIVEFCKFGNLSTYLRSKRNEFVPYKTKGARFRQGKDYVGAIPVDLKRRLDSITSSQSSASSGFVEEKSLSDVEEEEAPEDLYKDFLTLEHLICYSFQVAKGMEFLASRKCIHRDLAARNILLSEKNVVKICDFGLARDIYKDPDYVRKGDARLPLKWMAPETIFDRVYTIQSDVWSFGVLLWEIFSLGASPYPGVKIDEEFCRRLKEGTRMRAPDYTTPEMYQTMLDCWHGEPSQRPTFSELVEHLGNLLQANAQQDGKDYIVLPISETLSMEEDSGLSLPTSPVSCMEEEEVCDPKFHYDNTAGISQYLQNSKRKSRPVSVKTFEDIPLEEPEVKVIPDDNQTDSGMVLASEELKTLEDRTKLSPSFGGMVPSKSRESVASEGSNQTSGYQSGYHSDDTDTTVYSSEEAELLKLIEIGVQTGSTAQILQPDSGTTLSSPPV

SMILES	inhibition (PC-3)	IC50 (MCF7 [1])	further results
O=c1oc2ccc(S(=O)(=O)Nc3nc4ccccc4[nH]3)cc2cc1Br	inactive	3.65 µM	–
Cc1cc(=O)oc2cc(OCC(=O)N/N=C/c3ccc(N(C)C)cc3)ccc12	inactive	5.54 µM	–
Cc1cc(=O)oc2cc(OCC(=O)Nn3c(=O)[nH]c4ccccc4c3=O)ccc12	inactive	1.65 µM	IC50 [2]: 0.66 µM
Cc1cc(=O)oc2cc(OCC(=O)N/N=C/c3ccc([N+](=O)[O-])cc3)ccc12	inactive	5.59 µM	–
Cc1cc(=O)oc2cc(OCC(=O)N/N=C/c3ccc(F)cc3)ccc12	inactive	9.78 µM	–
Cc1cc(=O)oc2cc(OCC(=O)NNC(=O)CN3CCOCC3)ccc12	inactive	37.3 µM	–
Cc1cc(=O)oc2ccc(N3C(=O)c4ccccc4C3=O)cc12	inactive	4.17 µM	–
Cc1cc(=O)oc2cc(OCC(=O)NNCc3ccccc3)ccc12	inactive	1.24 µM	Activity (MCF7 [3]): 8.015 ng/mL; Activity (MCF7 [4]): 6.72%; Activity (MCF7 [5]): 17.78%; Activity (MCF7 [6]): Active; Activity (MCF7 [7]): 1.92%; Activity (MCF7 [8]): Active; IC50 [2]: 0.36 µM
O=c1oc2ccc(S(=O)(=O)N3CCOCC3)cc2cc1Br	inactive	13.2 µM	–
Cc1cc(=O)oc2cc(OCC(=O)NN3C(=O)c4ccccc4C3=O)ccc12	inactive	14.7 µM	–
O=c1oc2ccc(S(=O)(=O)NCc3ccc4c(c3)OCO4)cc2cc1Br	inactive	7.79 µM	–
Cc1cc(=O)oc2cc(OCC(=O)NN(C(=O)c3ccncc3)C(=O)c3ccncc3)ccc12	inactive	8.68 µM	–
Cc1cc(=O)oc2cc(OCC(=O)NNC(=O)c3ccccc3)ccc12	inactive	7.89 µM	–
Cc1cc(=O)oc2cc(OCC(=O)NNC(=O)CN3CCN(C)CC3)ccc12	inactive	6.68 µM	–
Cc1ccc(/C=N/NC(=O)COc2ccc3c(C)cc(=O)oc3c2)o1	inactive	3.19 µM	–
CN[C@@H]1C[C@H]2O[C@@](C)([C@@H]1OC)n1c3ccccc3c3c4c(c5c6ccccc6n2c5c31)C(=O)NC4 [STAUROSPORINE]	–	–	Activity (MCF7 [3]): 8.41 ng/mL; Activity (MCF7 [4]): 8.16%; Activity (MCF7 [5]): 11.27%; Activity (MCF7 [7]): 2.33%
COc1cc(OC)c(CNS(=O)(=O)c2ccc3oc(=O)c(Br)cc3c2)c(OC)c1	inactive	5.76 µM	–
Cc1cc(=O)oc2cc(OCC(=O)NN3C(=O)C=CC3=O)ccc12	inactive	2.11 µM	–
CN1CCN(S(=O)(=O)c2ccc3oc(=O)c(Br)cc3c2)CC1	inactive	31.4 µM	–
Cc1cc(=O)oc2ccc(NC(=O)c3ccccc3)cc12	inactive	4.6 µM	–
O=c1oc2ccc(S(=O)(=O)N3CCCCC3)cc2cc1Br	inactive	2.07 µM	–
